The values below come from patent US20230197192A1, “SELECTING NEOANTIGENS FOR PERSONALIZED CANCER VACCINE” (AMAZON TECHNOLOGIES, INC., priority 2020, published 2023).

Where a SMILES comes first, the peptide text is derived from it. Where no end group is shown, it is not given here.

The first data set in a line: Visible dissolution of peptides in DMSO / 0.9% NaCl for pool formulation. The data set is classed as physicochemical.
Conditions: not given
The protocol:
Groups of peptides are selected and pooled. Up to four (4) pools with not more than (NMT) five (5) peptides in each pool were prepared. Each peptide was dissolved in 5.538% (v/v) DMSO followed by 0.9% NaCl solution, at a concentration of each peptide at 0.4158 mg/mL. Peptides which were visibly dissolved were accepted for that group's pool. Upon successful pooling of all peptides within a group, the pool was filtered through a 0.2 μm Nylon filter. Peptides were shipped in sterile tubes and labeled with Pool name, lot #, components, manufacturing data, quantity/concentration and storage conditions.
As to SSCMGGMNQRPILTIITLED [DDDDD.9], the Solubility result is on record as “Cloudy”.
For RSLTLEPDPIVVPGNVTLSVVG [GGGGG.33], the Stability result is “Clear”.
The same measure, in the same setting: to `CSCC[C@H](NC(=O)[C@H](CC(C)C)NC(=O)[C@@H](NC(=O)[C@H](CCSC)NC(=O)[C@H](CC(C)C)NC(=O)[C@@H]1CCCN1C(=O)[C@H](C)NC(=O)[C@H](Cc1ccc(O)cc1)NC(=O)[C@@H]1CCCN1C(=O)[C@H](CC(=O)O)NC(=O)CNC(=O)[C@@H](NC(=O)CNC(=O)CNC(=O)[C@H](CC(C)C)NC(=O)CNC(=O)[C@H](CO)NC(=O)[C@H](Cc1ccc(O)cc1)NC(=O)[C@@H]1CCCN1)C(C)C)C(C)C)C(=O)N[C@@H](CS)C(=O)N[C@@H](CCCNC(=N)N)C(=O)N[C@H](C(=O)N[C@@H](CS)C(=O)N[C@@H](CC(C)C)C(=O)N[C@@H](CCC(=O)O)C(=O)N[C@@H](CC(=O)O)C(=O)O)C(C)C` [GGGGG.17] (H-PYSGLGGVGDPYAPLMVLMCRVCLED-OH; N-terminus and C-terminus assumed) belongs “Semi”.
As to TYPEADSFPSWAAAHRKGSS [DDDDD.20], the Solubility entry is recorded as “Clear”.

The same data set, now with this note: Peptide Synthesis Engineering Run Batch for Sample GGGGG; visual appearance of the peptide solution (Clear / Semi Cloudy / Cloudy).
In the case of AAIQEKKEI [GGGGG.39], the “Visual solubility (appearance of the peptide solution)” value (from here on “Visual solubility”) is recorded as “Clear”.
Take RFIGPLPREGSVGSTSDYVSQS [GGGGG.22]: the “Visual solubility” value is listed as “Clear”.
As for SAVMQEEI [GGGGG.38], the “Visual solubility” value was “Cloudy”.
Turning to ARPPGGSGPLRVLIPDLQL [GGGGG.3], the “Visual solubility” value is on record as “Clear”.
In the case of NSLQNQALQTLQERLHEADAT [GGGGG.20], the “Visual solubility” value is listed as “Clear”.
As to VALSVRPI [GGGGG.37], the “Visual solubility” value is recorded as “Clear”.
Consider RVLIPDLQL [GGGGG.42], for which the “Visual solubility” value is reported as “Clear”.
Consider IQSIYGGLPKVPAKPKEPTIPH [GGGGG.23], for which the “Visual solubility” value is “Clear”.
As for SPRVAPGSAPPWPALRSLLH [GGGGG.1], the “Visual solubility” value is listed as “Clear”.
As for GALPVASPASL [GGGGG.45], the “Visual solubility” value was “Clear”.
As to `CC(C)C[C@H](NC(=O)[C@@H](NC(=O)[C@H](Cc1c[nH]c2ccccc12)NC(=O)[C@H](C)NC(=O)[C@H](C)NC(=O)[C@@H](NC(=O)[C@H](Cc1ccccc1)NC(=O)[C@H](CCCCN)NC(=O)[C@H](C)N)C(C)C)[C@@H](C)O)C(=O)N[C@@H](CCCCN)C(=O)N[C@@H](C)C(=O)N[C@@H](C)C(=O)N[C@@H](C)C(=O)O` [GGGGG.51], the “Visual solubility” value is “Clear”.
Still for that read-out and setting: to SLCQAPPL [GGGGG.48] belongs “Clear”; to RPGEDPSLHGIVKEQL [GGGGG.10], “Clear”; to YSGIQESSSASPLSIKKCPI [GGGGG.29], “Clear”.
Regarding QAYNALTL [GGGGG.41], the “Visual solubility” value is reported as “Clear”.
In the case of `CC[C@H](C)[C@H](NC(=O)[C@H](C)NC(=O)CNC(=O)[C@H](CC(C)C)NC(=O)[C@H](CC(C)C)NC(=O)[C@H](CC(=O)O)NC(=O)[C@H](CS)NC(=O)[C@H](CO)NC(=O)[C@H](CCC(=O)O)NC(=O)[C@H](C)NC(=O)[C@@H]1CCCN1C(=O)[C@@H](N)CO)C(=O)N[C@@H](CCC(N)=O)C(=O)N[C@H](C(=O)N[C@@H](CS)C(=O)N[C@H](C(=O)N[C@@H](CCCNC(=N)N)C(=O)N[C@@H](CCCCN)C(=O)N[C@@H](CO)C(=O)N[C@@H](CC(C)C)C(=O)NCC(=O)O)[C@@H](C)CC)[C@@H](C)O` [GGGGG.11] (H-SPAESCDLLGAIQTCIRKSLG-OH; N-terminus and C-terminus assumed), the “Visual solubility” value is “Clear”.
Same read-out and setting: to TVDMLQCLRFPGLALPHTRAPSPLG [GGGGG.35] belongs “Clear”; to VSPDIFMQSHL [GGGGG.40], “Clear”.
As for RVGDLSPKQKEALAKPEA [GGGGG.27], the “Visual solubility” value was “Clear”.
For LAPGQPFL [GGGGG.50], the “Visual solubility” value is “Clear”.
Consider STAPAEATL [GGGGG.44], for which the “Visual solubility” value is reported as “Clear”.
Regarding SAPGSSRLAA [GGGGG.46], the “Visual solubility” value is “Clear”.
On to FETTTGFDPHSGTPLSDHEAL [GGGGG.7], for which the “Visual solubility” value is reported as “Clear”.
Same read-out and setting: to STAPAEATLPKPGEAEAP [GGGGG.16] belongs “Clear”.
“HLINYQDDAELATHALPELTKLLNDEDPV [GGGGG.14]”: the “Visual solubility” value was “Clear”.

Still in this data set, the particulars now being: Peptide synthesis engineering run batch for sample DDDDD_2020; appearance of the solution.
Take LLGTVDKHSVKVTNCFSVPHN [DDDDD.16]: the Solubility entry is reported as “Clear”.
For GQLFPYRARIEIKNKF [DDDDD.27], the Solubility entry is given as “Clear”.
Regarding KVTNCFSV [DDDDD.33], the Solubility result is given as “Clear”.
As to SAGENPLEEEE [DDDDD.43], the Solubility result is “Clear”.
As to ASSQAGTVTL [DDDDD.38], the Solubility result is recorded as “Clear”.
For the molecule RDILELGGPEEDAASGTISKKD [DDDDD.30], the Solubility result is on record as “Clear”.
Same read-out and setting: to AVVSYVVADMKEMLPRS [DDDDD.25] belongs “Clear”; to APPTRLAPPQRPPPPS [DDDDD.22], “Clear”.
Consider FGALHEDANKVIKPTSSNTA [DDDDD.5], for which the Solubility entry was “Clear”.
Consider NQPKIGGPLGTGAFEAPGFNTTTATLGF [DDDDD.4], for which the Solubility result is “Clear”.
Turning to `CC(C)C[C@H](NC(=O)[C@@H](NC(=O)[C@H](Cc1c[nH]c2ccccc12)NC(=O)[C@H](C)NC(=O)[C@H](C)NC(=O)[C@@H](NC(=O)[C@H](Cc1ccccc1)NC(=O)[C@H](CCCCN)NC(=O)[C@H](C)N)C(C)C)[C@@H](C)O)C(=O)N[C@@H](CCCCN)C(=O)N[C@@H](C)C(=O)N[C@@H](C)C(=O)N[C@@H](C)C(=O)O` [DDDDD.46], the Solubility entry is “Clear”.
For DPRLVIFSGCATRLFEA [DDDDD.11], the Solubility result is reported as “Cloudy”.
In the case of SQAGTVTL [DDDDD.31], the Solubility result was “Clear”.
In the case of TWHRGDAL [DDDDD.34], the Solubility result is recorded as “Clear”.
Take QELSPEKLKSWGGSLLGPWLSSGLKPLK [DDDDD.18]: the Solubility entry was “Clear”.
With KDKIWLRRTKPSKHQYQICLAIDDSSSM [DDDDD.17], the Solubility result is reported as “Clear”.
AQSRSSPTL [DDDDD.36]: the Solubility entry was “Clear”.
As to NTSALPLVSL [DDDDD.41], the Solubility result is reported as “Clear”.
On the same count and under the same terms, to KNPQMGDPGSLQPKSAETMNNIDRLRME [DDDDD.6] belongs “Clear”; to LNGSEPTGAYSIKGFFADYEIPN [DDDDD.26], “Clear”.
As to MSKPKWPLEDEISKPEVP [DDDDD.3], the Solubility entry is listed as “Clear”.
As to GQRRDRLLTVQALSGL [DDDDD.14], the Solubility result is “Clear”.
With DSSIPSAATL [DDDDD.42], the Solubility result is “Clear”.
Consider ARPEAQSRSSPTLES [DDDDD.12], for which the Solubility entry is “Clear”.
Turning to EAQSRSSPTL [DDDDD.40], the Solubility result is given as “Clear”.

Still in this data set, the particulars now being: Peptide synthesis engineering run batch for sample FFFFF; appearance of the solution.
LSPYPEHL [FFFFF.50]: the Solubility entry is “Clear”.
On the same count and under the same terms, to YGRTVVPFLVPGTSQLGQ [FFFFF.9] belongs “Clear”.
Regarding YIHTSVSQDFSQSVPGTTSSPL [FFFFF.10], the Solubility entry was “Clear”.
On the same count and under the same terms, to `CC(C)C[C@H](NC(=O)[C@H](CS)NC(=O)[C@H](CS)NC(=O)[C@H](CCC(=O)O)NC(=O)[C@H](Cc1c[nH]c2ccccc12)NC(=O)[C@H](Cc1ccccc1)NC(=O)[C@H](CCC(N)=O)NC(=O)[C@H](C)NC(=O)[C@@H](N)CC(C)C)C(=O)O` [FFFFF.38] (H-LAQFWECCL-OH; N-terminus and C-terminus assumed) belongs “Cloudy”; to NSASMKQAL [FFFFF.47], “Clear”.
Consider EDTGQDMLALFLRTNRQAAK [FFFFF.8], for which the Solubility result is recorded as “Clear”.
On the same count and under the same terms, with MILASPRYVDQVTEFLQQKLK [FFFFF.18] the entry was “Clear”; with KLESTVGSPKKPLSDLGKLS [FFFFF.22], “Clear”; with PTLPQPASHFSPPPPPPPLPP [FFFFF.5], “Clear”.
Regarding NSLTSSVL [FFFFF.45], the Solubility entry is recorded as “Clear”.
For TPSAPEGYDLKIGLFLAPRRGSLPD [FFFFF.17], the Solubility entry is recorded as “Clear”.
As to `CC(C)C[C@H](NC(=O)[C@H](CS)NC(=O)[C@H](CS)NC(=O)[C@H](CCC(=O)O)NC(=O)[C@H](Cc1c[nH]c2ccccc12)NC(=O)[C@H](Cc1ccccc1)NC(=O)[C@H](CCC(N)=O)NC(=O)[C@H](C)N)C(=O)O` [FFFFF.41] (H-AQFWECCL-OH; N-terminus and C-terminus assumed), the Solubility result is “Cloudy”.
Turning to `CC(C)C[C@H](NC(=O)[C@@H](NC(=O)[C@H](Cc1c[nH]c2ccccc12)NC(=O)[C@H](C)NC(=O)[C@H](C)NC(=O)[C@@H](NC(=O)[C@H](Cc1ccccc1)NC(=O)[C@H](CCCCN)NC(=O)[C@H](C)N)C(C)C)[C@@H](C)O)C(=O)N[C@@H](CCCCN)C(=O)N[C@@H](C)C(=O)N[C@@H](C)C(=O)N[C@@H](C)C(=O)O` [FFFFF.51], the Solubility result was “Clear”.
In the case of RSTTKSPGPSRHSKSPASTSSVN [FFFFF.21], the Solubility entry is reported as “Clear”.
On to YKTDLHSL [FFFFF.37], for which the Solubility result was “Clear”.
Take PLNPPASTAFSQEPHSGSPA [FFFFF.24]: the Solubility entry is given as “Clear”.
On to LGIGGLQDL [FFFFF.49], for which the Solubility result was “Clear”.
Take RNLYISGFSLCFWLVLRRLVT [FFFFF.26]: the Solubility result is listed as “Cloudy”.
Take TGQDMLAL [FFFFF.36]: the Solubility entry was “Clear”.
